From patent publication US11007183B2, “Cancer treatments using combinations of PI3K/Akt pathway and ERK inhibitors” (BIOMED VALLEY DISCOVERIES, INC., priority 2013, dated 2021) come the findings set out here.

Entries after “also recorded” stand apart in the source; their conditions may differ.

Holding throughout (assay type): cell-based, human
The subject of experiment [1] is HCT116 PIK3CA (+/−). Put plainly: Single agent proliferation assay (CellTiter-Glo, 72 h). Particulars: Homo sapiens, HCT-116, 72 h. As to the method:
Cells were seeded in 96-well plates at the densities and media conditions indicated in Table 11 in McCoy's 5A containing either 10% FBS or 1% charcoal-stripped FBS (CS-FBS), and allowed to adhere overnight prior to addition of compound or vehicle control. […] The final DMSO concentration was constant at 0.1%. Test compounds were incubated with the cells for 72 h at 37° C., 5% CO2 in a humidified atmosphere. CellTiter-Glo® reagent (Promega, Madison, Wis.) was added according to manufacturer's instructions and luminescence detected using the BMG FLUOstar plate reader (BMG Labtech, Ortenberg, Germany). The average media only background value was deducted and the data analysed using a 4-parameter logistic equation in GraphPad Prism (GraphPad Software, La Jolla, Calif.).

The subject of experiment [2] is MAPK signaling in HCT-116 cells. Put plainly: Western blot of MAPK signaling markers. Particulars: HCT116 KRAS mutant cell line, 4 hours, micromolar concentrations. As to the method: (§1) For Western blot studies, HCT116 cells (5×10^6) were seeded into 10 cm dishes in McCoy's 5A plus 10% FBS. A375 cells (2.5×10^6) were seeded into 10 cm dishes in DMEM plus 10% FBS. Cells were allowed to adhere overnight prior to addition of the indicated amount of test compound (BVD-523) or vehicle control. Cells were treated for either 4 or 24 hours before isolation of whole-cell protein lysates, as specified below. Cells were harvested by trypsinisation, pelleted and snap frozen. Lysates were prepared with RIPA (Radio-Immunoprecipitation Assay) buffer, clarified by centrifugation and quantitated by bicinchoninic acid assay (BCA) assay. 20-50 μg of protein was resolved by SDS-PAGE electrophoresis, blotted onto PVDF membrane and probed using the antibodies detailed in Table 9 (for the 4-hour treatment) and Table 10 (for the 24-hour treatment) below.

For experiment [3], the system named is HCT116 PIK3CA (+/−) cells. Put plainly: Combination proliferation assay (Loewe/Bliss). Particulars: 2.5% serum. How it is done:
Test compounds were incubated with the cells for 72 h at 37° C., 5% CO2 in a humidified atmosphere. CellTiter-Glo® reagent (Promega, Madison, Wis.) was added according to manufacturer's instructions and luminescence detected using the BMG FLUOstar plate reader (BMG Labtech, Ortenberg, Germany). The average media only background value was deducted and the data analysed. For the 10×8 combination assays the combination interactions across the dose matrix were determined by the Loewe Additivity and Bliss independence models using ChaliceTM Combination Analysis Software (Horizon Discovery Group, Cambridge, Mass.) as outlined in the user manual (available at chalice.horizondiscovery.com/chalice-portal/documentation/analyzer/home.jsp). Synergy is determined by comparing the experimentally observed level of inhibition at each combination point with the value expected for additivity, which is derived from the single-agent responses along the edges of the matrix. Potential synergistic interactions were identified by displaying the calculated excess inhibition over that predicted as being additive across the dose matrix as a heat map, and by reporting a quantitative 'Synergy Score' based on the Loewe model. The single agent data derived from the combination assay plates were presented as dose-response curves generated in GraphPad Prism (GraphPad Software, La Jolla, Calif.) (plotted using percentage viability relative to DMSO only treated controls). […] (Cbliss is the fractional inhibition that would be expected if the combination of the two drugs were exactly additive). Cbliss values were then subtracted from the experimentally observed fractional inhibition values to give an 'excess over Bliss' value which were plotted as heat maps±SD.

Experiment [4] relates to HCT116 Parental. Put plainly: Single agent proliferation assay (CellTiter-Glo, 72 h). Particulars: Homo sapiens, HCT-116, 72 h. How it is done: Cells were seeded in 96-well plates at the densities and media conditions indicated in Table 11 in McCoy's 5A containing either 10% FBS or 1% charcoal-stripped FBS (CS-FBS), and allowed to adhere overnight prior to addition of compound or vehicle control. Compounds were prepared from DMSO stocks to give the desired final concentrations. The final DMSO concentration was constant at 0.1%. Test compounds were incubated with the cells for 72 h at 37° C., 5% CO2 in a humidified atmosphere. CellTiter-Glo® reagent (Promega, Madison, Wis.) was added according to manufacturer's instructions and luminescence detected using the BMG FLUOstar plate reader (BMG Labtech, Ortenberg, Germany). The average media only background value was deducted and the data analysed using a 4-parameter logistic equation in GraphPad Prism (GraphPad Software, La Jolla, Calif.).

The subject of experiment [5] is MAPK signaling in A375 cells. Put plainly: Western blot of MAPK signaling, cell cycle and apoptosis markers. How it is done: as §1
Where [6] appears, read: A375, prolonged (24 hours) treatment.

Turning to `CC(C)Nc1cc(-c2c[nH]c(C(=O)N[C@H](CO)c3cccc(Cl)c3)c2)c(Cl)cn1` [BVD-523], the IC50 came out at 10 nM in experiment [1] (1% CS-FBS); 120 nM in experiment [1] (10% FBS); 40 nM in experiment [3] (Homo sapiens, HCT-116, HCT116 PIK3CA (+/−), mean of n=4 separate combinations, read-out: IC50 (single agent, derived from combination assay plates)); 20 nM in experiment [4] (1% CS-FBS); 170 nM in experiment [4] (10% FBS). For the same molecule, the “Phosphorylation of ERK-dependent residues (T359/S363) in RSK 1 and 2” value in experiment [2] is listed as “reduced”; in experiment [5] (A375 BRAF mutant cell line, 4 hours, micromolar concentrations), “reduced”. Besides, in experiment [3] (HCT116 line lacking the PIK3CA mutation vs parental), the “Single agent sensitivity relative to the parental line” value was “more sensitive”. In addition, the cyclin-D1 protein level result in experiment [5] (24 hours (prolonged) treatment) is “greatly reduced”. For the same molecule, the “MAPK feedback phosphatase DUSP6 protein level” value in experiment [5] (24 hours (prolonged) treatment, BRAF mutant cells) was “greatly reduced”. Moreover, the “Apoptosis / PARP cleavage” value in experiment [5] (setting [6]) is “PARP protein cleavage and increased apoptosis were not noted; also recorded: increased apoptosis was not observed”. For the same molecule, in experiment [5] (setting [6]), the Bim-EL level entry is reported as “increased”. The “Concentrations required to induce changes in substrate phosphorylation and effector targets of ERK kinases” value in experiment [5] (RAF and RAS mutant cancer cells in-vitro, acute and prolonged treatment) is “low micromolar range”. Also, the “Cellular ERK enzyme activity” value in experiment [5] (acute or prolonged treatment) was “fully inhibited”.
